Columns and labels:
[1] = Spontaneous locomotor activity in mice; type: in vivo, mouse; details: mouse, in vivo; ip, mice; read-out: ED50 (locomotor activity, sedative effect)
Experimental: (§1) The locomotor activity of mice was measured as previously described. We used photoresistor actometers (Ugo Basile, Italy) connected to a counter for the recording of light-beam interruptions. Mice were placed individually in cages for 30 min, and the number of crossings of the light beams was recorded as the locomotor activity for 4 min.

mice = assay: Spontaneous locomotor activity in mice; type: in vivo, mouse; details: for Number of Crossings ± SEM: 4 min
Experimental: as §1

CCC(CN1CCN(c2ccccc2OC)CC1)NCCCOc1c(C)cccc1C.Cl.Cl (stereo not drawn) [HBK-10, N-(3-(2,6-dimethylphenoxy)propyl)-1-(4-(2-methoxyphenyl)piperazin-1-yl)butan-2-amine dihydrochloride]
ED50 at 4 min [1]: 32.3 mg/kg
Number of Crossings ± SEM (mice; 10 mg/kg ip): 355.1 ± 49.92
Number of Crossings ± SEM (mice; 20 mg/kg ip): 329.8 ± 34.52
Number of Crossings ± SEM (mice; 40 mg/kg ip): 155.4 ± 29.59
Number of Crossings ± SEM (mice; 60 mg/kg ip): 22.17 ± 2.03
ED50 for sedative effect, fold higher than the lowest antidepressant-like dose (mice; mouse, in vivo): approximately 26 fold
